In patent US20260200928A1, “THERAPEUTIC COMPOUNDS” (Sanofi, priority 2022, published 2026):

biological target: T1, human IL-17A (Homo sapiens, UniProt Q16552); experiment: IL-17A AlphaLISA competition assay (block of IL-17A binding to its receptor IL-17RA); conditions: mean IC50 (n≥2), block of IL-17A binding to IL-17RA
T1 construct: purchased R&D Systems 7955-IL/CF
T1 sequence (Q16552 24-155): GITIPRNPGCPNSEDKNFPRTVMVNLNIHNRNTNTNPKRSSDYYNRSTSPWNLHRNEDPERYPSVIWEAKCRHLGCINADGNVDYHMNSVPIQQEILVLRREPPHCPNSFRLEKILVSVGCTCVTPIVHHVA
Summary of the method: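 Bead-based AlphaLISA competition in PBS with 0.05% Tween-20 and 0.1% BSA: compound first meets human IL-17A (7.5 nM stock) for 30 min, then IL-17RA/Fc (5 nM stock) for 90 min, all at room temperature, before acceptor/donor bead capture. IC50 fitted 4-parameter, DMSO and 4 μM reference inhibitor as controls; at least duplicate.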

IC50 [nM] | SMILES
57 | CCc1oncc1C(=O)NC(C(=O)Nc1cc([C@@H](COC)N2CC(F)(F)CNC2=O)ccn1)C1CCC(F)(F)CC1 (stereo in doubt) [Example 176, N—((S)-2-((4-((S)-1-(5,5-difluoro-2-oxotetrahydropyrimidin-1(2H)-yl)-2-methoxyethyl)pyridin-2-yl)amino)-1-(4,4-difluorocyclohexyl)-2-oxoethyl)-5-ethylisoxazole-4-carboxamide]
350 | CCc1nonc1C(=O)NC(C(=O)Nc1cc(C(CC)NC(=O)CCC(F)(F)F)ccn1)C1CCC(F)(F)CC1 (stereo in doubt) [Example 207, N-((1S)-1-(4,4-difluorocyclohexyl)-2-oxo-2-((4-(1-(4,4,4-trifluorobutan-amido)propyl)pyridin-2-yl)amino)ethyl)-4-ethyl-1,2,5-oxadiazole-3-carboxamide]
31 | CCc1conc1C(=O)NC(C(=O)Nc1cc([C@@H](CC)N2C[C@@H](C(F)(F)F)NC2=O)ccn1)C1CCC(F)(F)CC1 (stereo in doubt) [Example 208, N—((S)-1-(4,4-difluorocyclohexyl)-2-oxo-2-((4-((R)-1-((S)-2-oxo-4-(trifluoromethyl)imidazolidin-1-yl)propyl)pyridin-2-yl)amino)ethyl)-4-ethylisoxazole-3-carboxamide]
137 | CCc1nocc1C(=O)NC(C(=O)Nc1cc(CC2=C[C@@H](C(F)(F)F)NC2=O)ccn1)C1CCC(F)(F)CC1 (stereo in doubt) [Example 216, N-((1S)-1-(4,4-difluorocyclohexyl)-2-oxo-2-((4-((2-oxo-5-(trifluoromethyl)-2,5-dihydro-1H-pyrrol-3-yl)methyl)pyridin-2-yl)amino)ethyl)-3-ethylisoxazole-4-carboxamide]
465 | CCc1ncoc1C(=O)NC(C(=O)Nc1cc(C[C@H]2C[C@@H](C(F)(F)F)NC2=O)ccn1)C1CCC(F)(F)CC1 (stereo in doubt) [Example 217, N—((S)-1-(4,4-difluorocyclohexyl)-2-oxo-2-((4-(((3S,5S)-2-oxo-5-(trifluoro-methyl)pyrrolidin-3-yl)methyl)pyridin-2-yl)amino)ethyl)-4-ethyloxazole-5-carboxamide]
96 | CCn1nccc1C(=O)NC(C(=O)Nc1cc(C[C@H]2C[C@@H](C(F)(F)F)NC2=O)ccn1)C(C1CC1)C1CC1 (stereo in doubt) [Example 230, N—((S)-1,1-dicyclopropyl-3-oxo-3-((4-(((3S,5S)-2-oxo-5-(trifluoromethyl)-pyrrolidin-3-yl)methyl)pyridin-2-yl)amino)propan-2-yl)-1-ethyl-1H-pyrazole-5-carboxamide]
148 | CC(C)(C)OC(=O)N[C@H](C(=O)Nc1cc(CN2C[C@@H](C(F)(F)F)NC2=O)ccn1)[C@H]1CC[C@H](C)CC1 [Example 1, Tert-butyl ((S)-1-((1r,4S)-4-methylcyclohexyl)-2-oxo-2-((4-(((S)-2-oxo-4-(trifluoro-methyl)imidazolidin-1-yl)methyl)pyridin-2-yl)amino)ethyl)carbamate]
25 | C[C@H]1CC[C@H]([C@H](NC(=O)c2nonc2C2CC2)C(=O)Nc2cc(CN3C[C@@H](C(F)(F)F)NC3=O)ccn2)CC1 [Example 2, 4-Cyclopropyl-N—((S)-1-((1r,4S)-4-methylcyclohexyl)-2-oxo-2-((4-(((S)-2-oxo-4-(trifluoromethyl)imidazolidin-1-yl)methyl)pyridin-2-yl)amino)ethyl)-1,2,5-oxadiazole-3-carboxamide]
85 | Cn1nccc1C(=O)N[C@H](C(=O)Nc1cc(CN2C[C@@H](C(F)(F)F)NC2=O)ccn1)[C@H]1CC[C@H](C)CC1 [Example 3, 1-Methyl-N—((S)-1-((1r,4S)-4-methylcyclohexyl)-2-oxo-2-((4-(((S)-2-oxo-4-(trifluoromethyl)imidazolidin-1-yl)methyl)pyridin-2-yl)amino)ethyl)-1H-pyrazole-5-carboxamide]
35 | CC(C)n1nccc1C(=O)N[C@@H](C(=O)Nc1cc(CN2C[C@H](C(F)(F)F)NC2=O)ccn1)[C@H]1CC[C@H](C)CC1 [Example 4, 1-isopropyl-N—((S)-1-((1r,4S)-4-methylcyclohexyl)-2-oxo-2-((4-(((S)-2-oxo-4-(trifluoromethyl)imidazolidin-1-yl)methyl)pyridin-2-yl)amino)ethyl)-1H-pyrazole-5-carboxamide]
179 | C[C@H]1CC[C@H]([C@@H](NC(=O)OCc2ccccc2)C(=O)Nc2cc(CN3C[C@H](C(F)(F)F)NC3=O)ccn2)CC1 [Example 5, Benzyl ((S)-1-((1r,4S)-4-methylcyclohexyl)-2-oxo-2-((4-(((S)-2-oxo-4-(trifluoromethyl)imidazolidin-1-yl)methyl)pyridin-2-yl)amino)ethyl)carbamate]
407 | CC(C)(C)OC(=O)N1CCn2c(ccc2C(=O)N[C@H](C(=O)Nc2cc(CN3C[C@@H](C(F)(F)F)NC3=O)ccn2)[C@H]2CC[C@H](C)CC2)C1 [Example 7, Tert-butyl 6-(((S)-1-((1r,4S)-4-methylcyclohexyl)-2-oxo-2-((4-(((S)-2-oxo-4-(trifluoromethyl)imidazolidin-1-yl)methyl)pyridin-2-yl)amino)ethyl)-carbamoyl)-3,4-dihydropyrrolo[1,2-a]pyrazine-2(1H)-carboxylate]
141 | O=C(N[C@H](C(=O)Nc1cc(CN2C[C@@H](C(F)(F)F)NC2=O)ccn1)C1CCC(F)(F)CC1)c1nonc1C1CC1 [Example 8, 4-cyclopropyl-N-((S)-1-(4,4-difluorocyclohexyl)-2-oxo-2-((4-(((S)-2-oxo-4-(trifluoromethyl)imidazolidin-1-yl)methyl)pyridin-2-yl)amino)ethyl)-1,2,5-oxadiazole-3-carboxamide]
422 | Cn1nccc1C(=O)N[C@H](C(=O)Nc1cc(CN2C[C@@H](C(F)(F)F)NC2=O)ccn1)C1CCC(F)(F)CC1 [Example 9, N-((S)-1-(4,4-difluorocyclohexyl)-2-oxo-2-((4-(((S)-2-oxo-4-(trifluoromethyl)imidazolidin-1-yl)methyl)pyridin-2-yl)amino)ethyl)-1-methyl-1H-pyrazole-5-carboxamide]
359 | CC(C)(C)OC(=O)N1CCn2c(ccc2C(=O)N[C@H](C(=O)Nc2cc(CN3C[C@@H](C(F)(F)F)NC3=O)ccn2)C2CCC(F)(F)CC2)C1 [Example 11, Tert-butyl 6-(((S)-1-(4,4-difluorocyclohexyl)-2-oxo-2-((4-(((S)-2-oxo-4-(trifluoromethyl)imidazolidin-1-yl)methyl)pyridin-2-yl)amino)ethyl)carbamoyl)-3,4-dihydropyrrolo[1,2-a]pyrazine-2(1H)-carboxylate]
106 | CC(C)n1nccc1C(=O)N[C@H](C(=O)Nc1cc(CN2C[C@@H](C(F)(F)F)NC2=O)ccn1)C1CCC(F)(F)CC1 [Example 12, N-((S)-1-(4,4-difluorocyclohexyl)-2-oxo-2-((4-(((S)-2-oxo-4-(trifluoromethyl)imidazolidin-1-yl)methyl)pyridin-2-yl)amino)ethyl)-1-isopropyl-1H-pyrazole-5-carboxamide]
122 | CCc1nocc1C(=O)N[C@H](C(=O)Nc1cc(CN2C[C@@H](C(F)(F)F)NC2=O)ccn1)C1CCC(F)(F)CC1 [Example 13, N-((S)-1-(4,4-difluorocyclohexyl)-2-oxo-2-((4-(((S)-2-oxo-4-(trifluoromethyl)imidazolidin-1-yl)methyl)pyridin-2-yl)amino)ethyl)-3-ethylisoxazole-4-carboxamide]
333 | O=C(N[C@H](C(=O)Nc1cc(CN2C[C@@H](C(F)(F)F)NC2=O)ccn1)C1CCC(F)(F)CC1)c1ccnn1C1CC1 [Example 14, 1-cyclopropyl-N-((S)-1-(4,4-difluorocyclohexyl)-2-oxo-2-((4-(((S)-2-oxo-4-(trifluoromethyl)imidazolidin-1-yl)methyl)pyridin-2-yl)amino)ethyl)-1H-pyrazole-5-carboxamide]
201 | Cn1nccc1C(=O)N[C@H](C(=O)Nc1cc(CN2C[C@@H](C(F)(F)F)NC2=O)ccn1)C(C1CC1)C1CC1 [Example 15, N-((S)-1,1-dicyclopropyl-3-oxo-3-((4-(((S)-2-oxo-4-(trifluoromethyl)imidazolidin-1-yl)methyl)pyridin-2-yl)amino)propan-2-yl)-1-methyl-1H-pyrazole-5-carboxamide]
157 | O=C(N[C@H](C(=O)Nc1cc(CN2C[C@@H](C(F)(F)F)NC2=O)ccn1)C(C1CC1)C1CC1)c1nonc1C1CC1 [Example 16, 4-cyclopropyl-N-((S)-1,1-dicyclopropyl-3-oxo-3-((4-(((S)-2-oxo-4-(trifluoromethyl)imidazolidin-1-yl)methyl)pyridin-2-yl)amino)propan-2-yl)-1,2,5-oxadiazole-3-carboxamide]
92 | CC(C)n1nccc1C(=O)N[C@H](C(=O)Nc1cc(CN2C[C@@H](C(F)(F)F)NC2=O)ccn1)C(C1CC1)C1CC1 [Example 17, N-((S)-1,1-dicyclopropyl-3-oxo-3-((4-(((S)-2-oxo-4-(trifluoromethyl)imidazolidin-1-yl)methyl)pyridin-2-yl)amino)propan-2-yl)-1-isopropyl-1H-pyrazole-5-carboxamide]
448 | Cc1nonc1C(=O)N[C@H](C(=O)Nc1cc(CN2C[C@@H](C(F)(F)F)NC2=O)ccn1)C(C1CC1)C1CC1 [Example 18, N-((S)-1,1-dicyclopropyl-3-oxo-3-((4-(((S)-2-oxo-4-(trifluoromethyl)imidazolidin-1-yl)methyl)pyridin-2-yl)amino)propan-2-yl)-4-methyl-1,2,5-oxadiazole-3-carboxamide]
